Measured values: patent US20240158392A1 (Janssen Biotech, Inc., priority 2021, published 2024)
pIC50: −log10 of the molar value.

Assays:
[1] = target: T1, SIK2 (Homo sapiens, UniProt Q9H0K1); assay: SIK2 Enzymatic Assay Version 1 (ADP Glo); format: biochemical; conditions: enzyme 0.6 nM, 160 μM ATP and 140 μM HDAC5tide (each 2× final concentration); 30 minutes pre-incubation, 4 hours; ADPGlo luminescence; read-out: SIK2 ADP Glo IC50 (μM) (Test Example 1)
Method in brief: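 Room-temperature ADP-Glo luminescence assay; SIK2 added at 0.6 nM (2× final) and preincubated with compound for 30 min. Reaction stopped with ADP-Glo Reagent for 40 min, then detection reagent for at least 30 min; no-peptide (ATP-only) wells served as negative control.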

[2] = target: T1, SIK2; assay: SIK2 Enzymatic Assay High Version 2 (High ATP); format: biochemical
Method in brief: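 At room temperature, enzyme (6 nM, 2× final) was preincubated with compound for 30 min, then 6 mM ATP and 400 μM HDAC5tide (both 2× final) were added for 2 h. ADP formed was measured by ADP-Glo Max (2 h reagent, 1 h detection) using luminescence.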

T1 sequence (Q9H0K1 whole entry, species assumed): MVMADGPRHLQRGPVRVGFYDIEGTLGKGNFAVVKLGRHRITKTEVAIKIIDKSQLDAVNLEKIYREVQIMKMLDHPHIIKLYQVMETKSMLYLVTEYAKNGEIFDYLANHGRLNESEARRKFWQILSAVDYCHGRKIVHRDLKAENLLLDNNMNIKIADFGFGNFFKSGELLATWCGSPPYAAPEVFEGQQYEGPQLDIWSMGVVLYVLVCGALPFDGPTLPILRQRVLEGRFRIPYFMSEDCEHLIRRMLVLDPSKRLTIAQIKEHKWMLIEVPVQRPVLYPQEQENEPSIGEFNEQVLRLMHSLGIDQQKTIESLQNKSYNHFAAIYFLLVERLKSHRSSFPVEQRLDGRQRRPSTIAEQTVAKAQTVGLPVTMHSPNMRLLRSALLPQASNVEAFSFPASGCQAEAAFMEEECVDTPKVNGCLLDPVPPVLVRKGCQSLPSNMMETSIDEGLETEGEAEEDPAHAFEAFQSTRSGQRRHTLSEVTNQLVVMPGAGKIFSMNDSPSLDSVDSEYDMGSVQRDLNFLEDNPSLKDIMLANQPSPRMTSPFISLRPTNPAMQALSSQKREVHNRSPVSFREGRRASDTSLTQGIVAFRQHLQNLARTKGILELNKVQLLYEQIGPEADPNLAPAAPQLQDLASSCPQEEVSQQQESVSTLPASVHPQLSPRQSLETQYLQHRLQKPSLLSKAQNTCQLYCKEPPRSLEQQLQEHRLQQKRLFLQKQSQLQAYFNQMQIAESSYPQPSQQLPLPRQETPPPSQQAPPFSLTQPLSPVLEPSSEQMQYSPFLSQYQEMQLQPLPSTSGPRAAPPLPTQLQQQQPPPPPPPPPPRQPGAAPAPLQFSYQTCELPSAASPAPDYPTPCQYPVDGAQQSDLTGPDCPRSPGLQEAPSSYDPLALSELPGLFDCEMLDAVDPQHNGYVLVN

Compound | IC50 [1] [µM] | pIC50 [2]
CN1[C@@H]2CC[C@H]1C[C@@H](COc1cnc(C#N)cc1-c1ccn3nc(NC(=O)C4CC4)cc3c1)C2 [Example 83, N-(5-(2-cyano-5-(((1R,3R,5S)-8-methyl-8-azabicyclo[3.2.1]octan-3-yl)methoxy)pyridin-4-yl)pyrazolo[1,5-a]pyridin-2-yl)cyclopropanecarboxamide] | 0.00299 | 7.25
Cc1cc(-c2ccn3nc(NC(=O)C4CC4)cc3c2)c(OC[C@@H]2CN[C@H](C)CO2)cn1 [Example 168, N-[5-[2-methyl-5-[[(2S,5R)-5-methylmorpholin-2-yl]methoxy]-4-pyridyl]pyrazolo[1,5-a]pyridin-2-yl]cyclopropanecarboxamide] | 0.000382 | 8.33
CC(C)(C#N)COc1cnc(OC(F)F)cc1-c1ccn2nc(Nc3ccn4ncnc4c3)cc2c1 [Example 475, 3-[[6-(difluoromethoxy)-4-[2-([1,2,4]triazolo[1,5-a]pyridin-7-ylamino)pyrazolo[1,5-a]pyridin-5-yl]-3-pyridyl]oxy]-2,2-dimethyl-propanenitrile] | 0.00205 | 7.57
Cc1cc(-c2ccn3nc(NC(=O)C4CC4)cc3c2)c(O[C@@H]2CC[C@H](N)C2)cn1 [Example 152, N-[5-[5-[(1R,3S)-3-aminocyclopentoxy]-2-methyl-4-pyridyl]pyrazolo[1,5-a]pyridin-2-yl]cyclopropanecarboxamide] | 0.00378 | 7.15
Cc1cc(-c2ccn3nc(Nc4cc(C)nc(C)n4)cc3c2)c(O[C@H]2CC[C@H](O)CC2)nn1 [Example 488, 4-[4-[2-[(2,6-dimethylpyrimidin-4-yl)amino]pyrazolo[1,5-a]pyridin-5-yl]-6-methyl-pyridazin-3-yl]oxycyclohexanol] | 0.00294 | 6.94
CN1[C@@H]2COC[C@H]1CC(Nc1cnc(C#N)cc1-c1ccn3nc(NC(=O)C4CC4)cc3c1)C2 (stereo partly drawn) [Example 565, N-[5-[2-cyano-5-[[(1R,5S)-9-methyl-3-oxa-9-azabicyclo[3.3.1]nonan-7-yl]amino]-4-pyridyl]pyrazolo[1,5-a]pyridin-2-yl]cyclopropanecarboxamide] | 0.00384 | 7.05
N#CCN[C@H]1C[C@@H](COc2cnc(C#N)cc2-c2ccn3nc(NC(=O)C4CC4)cc3c2)C1 [Example 596, N-[5-[2-cyano-5-[[3-(cyanomethylamino)cyclobutyl]methoxy]-4-pyridyl]pyrazolo[1,5-a]pyridin-2-yl]cyclopropanecarboxamide] | 0.00125 | 7.84
Cc1cc(-c2ccn3nc(NC(=O)C4CC4)cc3c2)c(OC[C@@H]2CNCCO2)cn1 [Example 143, N-[5-[2-methyl-5-[[(2S)-morpholin-2-yl]methoxy]-4-pyridyl]pyrazolo[1,5-a]pyridin-2-yl]cyclopropanecarboxamide] | 0.000664 | 7.90
N#CCN1CC[C@H](Oc2cnc(C#N)cc2-c2ccn3nc(NC(=O)C4CC4)cc3c2)C1 [Example 114, (S)—N-[5-[2-cyano-5-[(3S)-1-(cyanomethyl)pyrrolidin-3-yl]oxy-4-pyridyl]pyrazolo[1,5-a]pyridin-2-yl]cyclopropanecarboxamide] | 0.000337 | 8.18
CN1CCC[C@@H](COc2cnc(C#N)cc2-c2ccn3nc(NC(=O)C4CC4)cc3c2)C1 [Example 37, (R)—N-(5-(2-cyano-5-((1-methylpiperidin-3-yl)methoxy)pyridin-4-yl)pyrazolo[1,5-a]pyridin-2-yl)cyclopropanecarboxamide] | 0.00725 | 6.95
CN[C@H]1C[C@@H](COc2cnc(C#N)cc2-c2ccn3nc(NC(=O)C4CC4)cc3c2)C1 [Example 98, N-(5-(2-cyano-5-(((1s,3s)-3-(methylamino)cyclobutyl)methoxy)pyridin-4-yl)pyrazolo[1,5-a]pyridin-2-yl)cyclopropanecarboxamide] | 0.000779 | 7.86
CC(=O)N1CCC(Oc2cnc(C#N)cc2-c2ccn3nc(NC(=O)C4CC4)cc3c2)C1 (single isomer, unassigned) [Example 56, (*R)—N-(5-(5-((1-Acetylpyrrolidin-3-yl)oxy)-2-cyanopyridin-4-yl)pyrazolo[1,5-a]pyridin-2-yl)cyclopropanecarboxamide] | 0.0036 | 7.16
N#Cc1cc(-c2ccn3nc(NC(=O)C4CC4)cc3c2)c(OC[C@H]2CNCCO2)cn1 [Example 592, N-[5-[2-cyano-5-[[(2R)-morpholin-2-yl]methoxy]-4-pyridyl]pyrazolo[1,5-a]pyridin-2-yl]cyclopropanecarboxamide] | 0.00486 | 6.92
Cc1cc(-c2ccn3nc(NC(=O)C4CC4)cc3c2)c(OC[C@@H]2CNC(C)(C)CO2)cn1 [Example 167, N-[5-[5-[[(2S)-5,5-dimethylmorpholin-2-yl]methoxy]-2-methyl-4-pyridyl]pyrazolo[1,5-a]pyridin-2-yl]cyclopropanecarboxamide] | 0.00059 | 8.06
Cc1cc(-c2ccn3nc(NC(=O)C4CC4)cc3c2)c(OCC2(F)CN(C)C2)cn1 [Example 169, N-[5-[5-[(3-fluoro-1-methyl-azetidin-3-yl)methoxy]-2-methyl-4-pyridyl]pyrazolo[1,5-a]pyridin-2-yl]cyclopropanecarboxamide] | 0.00307 | 7.29
Cc1cc(-c2ccn3nc(Nc4ccn(C)n4)cc3c2)c(O[C@H]2CC[C@@H](O)CC2)cn1 [Example 184, cis-4-[[6-methyl-4-[2-[(1-methylpyrazol-3-yl)amino]pyrazolo[1,5-a]pyridin-5-yl]-3-pyridyl]oxy]cyclohexanol] | 0.00175 | 7.85
CNC1(COc2cnc(C)cc2-c2ccn3nc(NC(=O)C4CC4)cc3c2)CCC1 [Example 156, N-[5-[2-methyl-5-[[1-(methylamino)cyclobutyl]methoxy]-4-pyridyl]pyrazolo[1,5-a]pyridin-2-yl]cyclopropanecarboxamide] | 0.00369 | 7.10
CN1CC[C@@H](COc2cnc(C#N)cc2-c2ccn3nc(Nc4cccnc4)cc3c2)C1 [Example 4, (R)-5-((1-methylpyrrolidin-3-yl)methoxy)-4-(2-(pyridin-3-ylamino)pyrazolo[1,5-a]pyridin-5-yl)picolinonitrile] | 0.0039 | 7.13
Cc1cc(-c2ccn3nc(Nc4ccn(C)n4)cc3c2)c(OC[C@@H]2CNCCO2)cn1 [Example 129, 5-[2-methyl-5-[[(2S)-morpholin-2-yl]methoxy]-4-pyridyl]-N-(1-methylpyrazol-3-yl)pyrazolo[1,5-a]pyridin-2-amine] | 0.000657 | 8.08
CN1[C@@H]2CC[C@H]1C[C@@H](Oc1cnc(C#N)cc1-c1ccn3nc(NC(=O)C4CC4)cc3c1)C2 [Example 66, N-[5-[2-cyano-5-[[(1S,5R)-8-methyl-8-azabicyclo[3.2.1]octan-3-yl]oxy]-4-pyridyl]pyrazolo[1,5-a]pyridin-2-yl]cyclopropanecarboxamide] | 0.000561 | 8.07
Cc1cc(-c2ccn3nc(Nc4cc(C)nc(C)n4)cc3c2)c(OC[C@@H]2CNCCO2)cn1 [Example 432, N-(2,6-dimethylpyrimidin-4-yl)-5-[2-methyl-5-[[(2S)-morpholin-2-yl]methoxy]-4-pyridyl]pyrazolo[1,5-a]pyridin-2-amine] | 0.000345 | 8.77
Cc1cc(-c2ccn3nc(NC(=O)C4CC4)cc3c2)c(O[C@H]2CC[C@H](O)CC2)cn1 [Example 158, trans-N-[5-[5-(4-hydroxycyclohexoxy)-2-methyl-4-pyridyl]pyrazolo[1,5-a]pyridin-2-yl]cyclopropanecarboxamide] | 0.00132 | 7.74
Cc1cc(-c2ccn3nc(NC(=O)C4CC4)cc3c2)c(O[C@H]2CCN(C)C2)cn1 [Example 139, N-[5-[2-methyl-5-[(3S)-1-methylpyrrolidin-3-yl]oxy-4-pyridyl]pyrazolo[1,5-a]pyridin-2-yl]cyclopropanecarboxamide] | 0.0033 | 7.14
CC(C)(O)COc1cnc(C#N)cc1-c1ccn2nc(NC(=O)C3CC3)cc2c1 [Example 52, N-[5-[2-Cyano-5-(2-hydroxy-2-methyl-propoxy)-4-pyridyl]pyrazolo[1,5-a]pyridin-2-yl]cyclopropanecarboxamide] | 0.00206 | 7.50
N#Cc1cc(-c2ccn3nc(NC(=O)C4CC4)cc3c2)c(OC[C@@H]2CCCNC2)cn1 [Example 585, N-[5-[2-cyano-5-[[(3R)-3-piperidyl]methoxy]-4-pyridyl]pyrazolo[1,5-a]pyridin-2-yl]cyclopropanecarboxamide] | 0.00148 | 7.77
N#Cc1cc(-c2ccn3nc(NC(=O)C4CC4)cc3c2)c(OC2CC3(CNC3)C2)cn1 [Example 587, N-[5-[5-(6-azaspiro[3.3]heptan-2-yloxy)-2-cyano-4-pyridyl]pyrazolo[1,5-a]pyridin-2-yl]cyclopropanecarboxamide] | 0.00381 | 7.06
Cc1cc(-c2ccn3nc(NC(=O)C4CC4)cc3c2)c(OC2CN(C)C2)cn1 [Example 115, N-(5-(2-methyl-5-((1-methylazetidin-3-yl)oxy)pyridin-4-yl)pyrazolo[1,5-a]pyridin-2-yl)cyclopropanecarboxamide] | 0.0095 | 6.80
Cc1cc(-c2ccn3nc(NC(=O)C4CC4)cc3c2)c(OC[C@H](N)C(C)(C)C)cn1 [Example 150, N-[5-[5-[(2R)-2-amino-3,3-dimethyl-butoxy]-2-methyl-4-pyridyl]pyrazolo[1,5-a]pyridin-2-yl]cyclopropanecarboxamide] | 0.00644 | 6.49
